The values that follow come from patent EP4467141A1, “PYRAZOLO-QUINOLINES AS SELECTIVE INHIBITORS OF GENOTOXIC STRESS-INDUCED IKK/NF- KB PATHWAYS FOR CANCER THERAPY” (Max-Delbrück-Centrum für Molekulare Medizin in der …, priority 2023, dated 2024).

The inhibition is the drop in the measured response relative to a control, in per cent.

Molecules are shown by their SMILES.

Common to all, as to assay: Kinase panel study
Holding throughout (assay type): biochemical
Holding throughout (settings): read-out: Percentage of inhibition; for inhibition at 1 µM: 1000nM; for inhibition at 10 µM: 10000nM

One assay addresses T1, GSK3B (GSK3 beta) (Homo sapiens, UniProt P49841).
T1 construct: purchased Thermo Fisher Scientific
The essentials: (§1)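 Kinase inhibition was determined by a contract provider in cell-free ZLyte or Adapta assays. Results are expressed as % inhibition at 10 or 1 µM.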

In the next assay the target is T2, PAK1 (Homo sapiens, UniProt Q13153).
T2 construct: purchased Thermo Fisher Scientific
T2 sequence (Q13153 whole entry): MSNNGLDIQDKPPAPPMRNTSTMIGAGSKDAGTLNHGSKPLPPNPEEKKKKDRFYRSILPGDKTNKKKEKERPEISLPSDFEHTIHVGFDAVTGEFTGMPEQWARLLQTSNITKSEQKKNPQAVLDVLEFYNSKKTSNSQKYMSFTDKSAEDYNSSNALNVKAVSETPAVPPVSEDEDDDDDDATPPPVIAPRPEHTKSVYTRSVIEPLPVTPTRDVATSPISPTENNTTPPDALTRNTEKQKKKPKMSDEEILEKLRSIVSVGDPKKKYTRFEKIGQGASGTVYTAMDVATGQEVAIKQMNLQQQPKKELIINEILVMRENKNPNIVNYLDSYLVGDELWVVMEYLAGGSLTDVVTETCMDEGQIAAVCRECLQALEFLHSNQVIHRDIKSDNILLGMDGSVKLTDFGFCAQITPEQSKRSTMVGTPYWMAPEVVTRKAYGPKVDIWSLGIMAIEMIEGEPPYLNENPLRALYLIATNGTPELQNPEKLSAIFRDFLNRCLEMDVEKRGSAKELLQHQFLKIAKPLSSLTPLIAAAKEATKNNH
The essentials:
as §1

A further assay deals with T3, ABL1 E255K (Homo sapiens, UniProt P00519, E255K).
T3 construct: purchased Thermo Fisher Scientific
T3 sequence (P00519 whole entry E255K): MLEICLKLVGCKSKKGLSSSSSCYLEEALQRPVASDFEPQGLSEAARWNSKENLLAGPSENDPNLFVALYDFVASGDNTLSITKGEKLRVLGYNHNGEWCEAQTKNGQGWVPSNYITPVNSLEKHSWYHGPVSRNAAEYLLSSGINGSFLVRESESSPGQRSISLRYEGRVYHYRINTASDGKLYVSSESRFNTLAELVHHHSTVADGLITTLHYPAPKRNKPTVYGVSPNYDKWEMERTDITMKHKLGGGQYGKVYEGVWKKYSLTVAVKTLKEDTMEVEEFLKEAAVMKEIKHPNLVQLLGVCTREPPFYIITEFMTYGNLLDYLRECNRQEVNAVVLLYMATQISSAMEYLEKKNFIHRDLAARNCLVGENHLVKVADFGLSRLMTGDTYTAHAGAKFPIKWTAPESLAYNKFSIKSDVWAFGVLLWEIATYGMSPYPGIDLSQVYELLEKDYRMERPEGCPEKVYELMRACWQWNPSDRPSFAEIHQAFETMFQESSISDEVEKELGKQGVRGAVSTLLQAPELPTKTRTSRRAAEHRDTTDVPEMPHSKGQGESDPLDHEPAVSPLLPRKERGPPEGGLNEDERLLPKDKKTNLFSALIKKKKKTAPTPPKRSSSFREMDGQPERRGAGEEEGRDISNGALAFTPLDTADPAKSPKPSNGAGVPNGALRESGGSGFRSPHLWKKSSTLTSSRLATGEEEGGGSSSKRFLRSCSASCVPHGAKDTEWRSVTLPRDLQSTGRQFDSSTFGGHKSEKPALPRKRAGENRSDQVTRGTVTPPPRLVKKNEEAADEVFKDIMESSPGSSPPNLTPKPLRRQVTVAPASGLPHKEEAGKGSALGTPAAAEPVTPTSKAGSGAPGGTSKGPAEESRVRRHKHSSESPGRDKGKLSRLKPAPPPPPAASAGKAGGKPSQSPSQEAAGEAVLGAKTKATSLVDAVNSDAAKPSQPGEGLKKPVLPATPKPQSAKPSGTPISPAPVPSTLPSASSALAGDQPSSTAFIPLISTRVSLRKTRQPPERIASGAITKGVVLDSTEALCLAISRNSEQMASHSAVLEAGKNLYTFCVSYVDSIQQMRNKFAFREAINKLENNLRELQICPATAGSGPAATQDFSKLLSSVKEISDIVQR
The essentials:
as §1

Another assay addresses T4, PAK4 (Homo sapiens, UniProt O96013).
T4 construct: purchased Thermo Fisher Scientific
The essentials:
as §1

The target in another assay is T5, CSNK1G3 (CK1 gamma 3) (Homo sapiens, UniProt Q9Y6M4).
T5 construct: purchased Thermo Fisher Scientific
T5 sequence (Q9Y6M4 whole entry): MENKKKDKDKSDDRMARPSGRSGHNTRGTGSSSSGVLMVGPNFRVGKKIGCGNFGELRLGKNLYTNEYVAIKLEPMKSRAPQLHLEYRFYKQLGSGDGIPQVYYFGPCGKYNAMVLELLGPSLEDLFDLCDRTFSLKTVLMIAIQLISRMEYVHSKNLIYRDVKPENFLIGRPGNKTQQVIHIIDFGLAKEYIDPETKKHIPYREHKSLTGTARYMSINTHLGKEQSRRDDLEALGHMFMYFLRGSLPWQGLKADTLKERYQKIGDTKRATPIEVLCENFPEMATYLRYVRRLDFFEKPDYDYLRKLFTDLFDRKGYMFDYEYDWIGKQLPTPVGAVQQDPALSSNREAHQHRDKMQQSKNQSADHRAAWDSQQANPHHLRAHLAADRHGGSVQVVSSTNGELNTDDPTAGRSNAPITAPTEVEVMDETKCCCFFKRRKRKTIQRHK
The essentials: as §1

In a further assay the target is T6, CSNK1E (CK1 epsilon) (Homo sapiens, UniProt P49674).
T6 construct: purchased Thermo Fisher Scientific
T6 sequence (P49674 whole entry): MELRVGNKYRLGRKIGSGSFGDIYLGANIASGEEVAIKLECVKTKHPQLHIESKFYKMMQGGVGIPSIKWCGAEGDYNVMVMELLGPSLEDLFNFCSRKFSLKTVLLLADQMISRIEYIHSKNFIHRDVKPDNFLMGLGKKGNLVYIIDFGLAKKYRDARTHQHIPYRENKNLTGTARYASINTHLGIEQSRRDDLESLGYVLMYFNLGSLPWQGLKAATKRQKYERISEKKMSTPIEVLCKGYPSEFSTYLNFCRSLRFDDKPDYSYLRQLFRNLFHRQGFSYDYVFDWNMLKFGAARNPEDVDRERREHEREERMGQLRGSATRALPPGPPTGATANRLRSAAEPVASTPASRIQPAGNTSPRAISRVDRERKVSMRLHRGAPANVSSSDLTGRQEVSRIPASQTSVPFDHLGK
The essentials: as §1

The next assay addresses T7, JAK3 (Homo sapiens, UniProt P52333).
T7 construct: purchased Thermo Fisher Scientific
T7 sequence (P52333 1-1124): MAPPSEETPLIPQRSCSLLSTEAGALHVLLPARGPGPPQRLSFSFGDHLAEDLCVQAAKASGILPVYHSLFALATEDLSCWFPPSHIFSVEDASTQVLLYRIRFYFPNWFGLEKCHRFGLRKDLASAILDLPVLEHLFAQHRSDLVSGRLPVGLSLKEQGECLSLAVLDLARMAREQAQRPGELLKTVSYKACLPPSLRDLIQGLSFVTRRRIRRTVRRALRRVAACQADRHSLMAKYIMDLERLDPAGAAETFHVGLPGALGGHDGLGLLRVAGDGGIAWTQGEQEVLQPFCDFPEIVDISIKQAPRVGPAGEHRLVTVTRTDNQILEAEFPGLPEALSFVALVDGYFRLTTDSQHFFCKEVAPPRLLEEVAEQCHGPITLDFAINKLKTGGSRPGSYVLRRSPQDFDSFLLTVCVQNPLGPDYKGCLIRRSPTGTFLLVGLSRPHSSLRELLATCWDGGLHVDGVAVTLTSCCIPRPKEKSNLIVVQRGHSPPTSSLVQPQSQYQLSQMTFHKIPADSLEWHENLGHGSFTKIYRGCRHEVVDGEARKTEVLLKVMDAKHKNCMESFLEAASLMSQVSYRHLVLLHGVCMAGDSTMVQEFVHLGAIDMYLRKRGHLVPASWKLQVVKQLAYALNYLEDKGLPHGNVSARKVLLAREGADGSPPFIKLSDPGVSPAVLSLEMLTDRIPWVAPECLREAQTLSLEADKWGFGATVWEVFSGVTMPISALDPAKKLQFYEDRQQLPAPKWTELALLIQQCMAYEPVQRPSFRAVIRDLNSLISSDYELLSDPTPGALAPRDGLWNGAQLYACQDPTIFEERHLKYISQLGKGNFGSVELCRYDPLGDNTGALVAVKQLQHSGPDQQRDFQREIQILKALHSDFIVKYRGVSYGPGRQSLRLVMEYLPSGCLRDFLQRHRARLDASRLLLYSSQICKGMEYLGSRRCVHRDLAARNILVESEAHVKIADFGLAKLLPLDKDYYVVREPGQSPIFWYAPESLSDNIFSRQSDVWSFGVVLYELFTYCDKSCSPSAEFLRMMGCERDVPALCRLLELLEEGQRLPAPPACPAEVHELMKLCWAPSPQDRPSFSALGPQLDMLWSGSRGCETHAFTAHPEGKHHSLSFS
The essentials: as §1

T4 sequence (O96013 whole entry): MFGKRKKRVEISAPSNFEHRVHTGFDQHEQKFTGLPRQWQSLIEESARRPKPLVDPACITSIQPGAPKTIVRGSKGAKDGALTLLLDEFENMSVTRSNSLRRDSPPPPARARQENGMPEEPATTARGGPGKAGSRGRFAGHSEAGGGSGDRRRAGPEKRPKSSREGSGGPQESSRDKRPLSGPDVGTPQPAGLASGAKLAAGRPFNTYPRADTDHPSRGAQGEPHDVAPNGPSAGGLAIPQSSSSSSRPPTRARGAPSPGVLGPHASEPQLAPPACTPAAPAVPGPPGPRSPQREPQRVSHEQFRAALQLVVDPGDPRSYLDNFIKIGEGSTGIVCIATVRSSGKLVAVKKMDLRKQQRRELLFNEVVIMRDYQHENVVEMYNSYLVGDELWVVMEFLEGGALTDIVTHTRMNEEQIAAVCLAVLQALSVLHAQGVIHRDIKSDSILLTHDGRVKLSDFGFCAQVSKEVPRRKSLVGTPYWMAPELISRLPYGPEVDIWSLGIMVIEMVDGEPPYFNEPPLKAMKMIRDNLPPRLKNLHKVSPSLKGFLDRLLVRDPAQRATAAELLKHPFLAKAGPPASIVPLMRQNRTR
T1 sequence (P49841 whole entry): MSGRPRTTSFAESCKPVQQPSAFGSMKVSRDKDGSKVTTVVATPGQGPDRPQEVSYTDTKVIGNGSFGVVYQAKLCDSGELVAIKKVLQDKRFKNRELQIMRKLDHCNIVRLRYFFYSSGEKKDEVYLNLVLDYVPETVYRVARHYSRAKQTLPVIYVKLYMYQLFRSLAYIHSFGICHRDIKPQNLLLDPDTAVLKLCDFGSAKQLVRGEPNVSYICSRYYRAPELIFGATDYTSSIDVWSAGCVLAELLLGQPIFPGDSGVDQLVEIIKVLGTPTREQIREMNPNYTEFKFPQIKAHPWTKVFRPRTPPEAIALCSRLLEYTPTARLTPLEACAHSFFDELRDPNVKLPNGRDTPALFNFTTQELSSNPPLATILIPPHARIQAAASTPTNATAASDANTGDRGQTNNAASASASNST

Turning to `COc1ccc2c(c1OC)c(=O)n1c3ccc(O)cc3c3ccnc2c31` [MW01, 5-Hydroxy-10,11-dimethoxy-9H-benzo[c]indolo[3,2,1-ij][1,5]naphthyridin-9-one], the inhibition at 1 µM at GSK3B (GSK3 beta) stood at 27%; at PAK1, 10%; on ABL1 E255K, 7%; on PAK4 it was 13%; on CSNK1G3 (CK1 gamma 3), 4%; on CSNK1E (CK1 epsilon) it was 6%. In addition, the inhibition at 1 µM on JAK3 was found to be 9%. In addition, the inhibition at 10 µM on GSK3B (GSK3 beta) was found to be 52%; at PAK1, 22%; on ABL1 E255K it was 11%; at PAK4 it was 20%; on CSNK1G3 (CK1 gamma 3), 12%; on CSNK1E (CK1 epsilon), 32%. Besides, the inhibition at 10 µM on JAK3 stood at 20%.
For the compound `COc1ccc2cc3c(N)nn(C(=O)c4cccc(N(C)C)c4)c3nc2c1` [MW05, (3-Amino-7-methoxypyrazolo[3,4-b]quinolin-1-yl)-[3-(dimethylamino)phenyl]methanone], the inhibition at 1 µM on GSK3B (GSK3 beta) was determined as 6%; at PAK1, 16%; at ABL1 E255K, 6%; on PAK4, 11%; on CSNK1G3 (CK1 gamma 3), 1%; at CSNK1E (CK1 epsilon), 2%. Further, at JAK3, the inhibition at 1 µM worked out at 4%. In addition, the inhibition at 10 µM was determined as 14% at GSK3B (GSK3 beta); 2% on PAK1; 5% at ABL1 E255K; 15% on PAK4; 9% on CSNK1G3 (CK1 gamma 3); 0% at CSNK1E (CK1 epsilon). Moreover, at JAK3, the inhibition at 10 µM is -6%.
